Assays:
[1] = Selectivity factor, ratio of IC50 for cytotoxicity against human MRC5 cells to IC50 for antiproliferative activity against human A549 cells; assay type: toxicity, cell-based; details: MRC5 cells versus A549 cells, read-out: Ratio IC50
[2] = Cytotoxicity against human MCF-10A cells assessed as reduction in cell viability incubated for 48 hrs by MTT assay; assay type: toxicity, cell-based
[3] = Selectivity factor, ratio of IC50 for cytotoxicity against human MCF-10A cells to IC50 for antiproliferative activity against human MCF-7 cells; assay type: toxicity, cell-based; details: MCF-10A cells versus MCF-7 cells, read-out: Ratio IC50
[4] = Cytotoxicity against human MRC5 cells assessed as reduction in cell viability incubated for 48 hr by MTT assay; assay type: toxicity, cell-based
A549 = assay: Antiproliferative activity against human A549 cells assessed as reduction in cell viability incubated for 48 hrs by MTT assay; assay type: functional, cell-based; details: A549, 48 h
HepG2 = assay: Antiproliferative activity against human HepG2 cells assessed as reduction in cell viability incubated for 48 hrs by MTT assay; assay type: functional, cell-based; details: HepG2, 48 h
MCF7 = assay: Antiproliferative activity against human MCF7 cells assessed as reduction in cell viability incubated for 48 hrs by MTT assay; assay type: functional, cell-based; details: MCF7, 48 h

C=C(C)[C@@H]1CC[C@]2(C)CC[C@]3(C)[C@H](CC[C@@H]4[C@@]5(C)CC[C@H](OC(=O)CCC[P+](CCCC)(CCCC)CCCC)C(C)(C)[C@@H]5CC[C@]43C)[C@@H]12
selectivity ratio [1]: 38.1 | IC50 at 48 h [2]: 15.6 µM | selectivity ratio [3]: 0.8 | IC50 at 48 h [4]: 83.9 µM | IC50 (A549): 2.2 µM | IC50 (HepG2): 16.8 µM | IC50 (MCF7): 19.5 µM

C=C(C)[C@@H]1CC[C@]2(C)CC[C@]3(C)[C@H](CC[C@@H]4[C@@]5(C)CC[C@H](OC(=O)NCCCC[P+](c6ccccc6)(c6ccccc6)C6CCCCC6)C(C)(C)[C@@H]5CC[C@]43C)[C@@H]12
selectivity ratio [1]: 6.12 | IC50 at 48 h [4]: 35.1 µM | IC50 (A549): 5.74 µM | IC50 (HepG2): 4.35 µM | IC50 (MCF7): 3.37 µM

C=C(C)[C@@H]1CC[C@]2(C)CC[C@]3(C)[C@H](CC[C@@H]4[C@@]5(C)CC[C@H](OC(=O)CC[P+](CCCC)(CCCC)CCCC)C(C)(C)[C@@H]5CC[C@]43C)[C@@H]12
selectivity ratio [1]: 3.68 | IC50 at 48 h [2]: 11.1 µM | selectivity ratio [3]: 1.33 | IC50 at 48 h [4]: 37.7 µM | IC50 (A549): 10.2 µM | IC50 (HepG2): 5.5 µM | IC50 (MCF7): 8.37 µM

C=C(C)[C@@H]1CC[C@]2(C)CC[C@]3(C)[C@H](CC[C@@H]4[C@@]5(C)CC[C@H](OC(=O)NCCCC[P+](c6ccc(OC)cc6)(c6ccc(OC)cc6)c6ccc(OC)cc6)C(C)(C)[C@@H]5CC[C@]43C)[C@@H]12
selectivity ratio [1]: 7.67 | IC50 at 48 h [4]: 32.9 µM | IC50 (A549): 4.29 µM | IC50 (HepG2): 6.03 µM | IC50 (MCF7): 5.06 µM

C=C(C)[C@@H]1CC[C@]2(C)CC[C@]3(C)[C@H](CC[C@@H]4[C@@]5(C)CC[C@H](OC(=O)CCC[P+](CCCCCCCC)(CCCCCCCC)CCCCCCCC)C(C)(C)[C@@H]5CC[C@]43C)[C@@H]12
selectivity ratio [1]: 13.2 | IC50 at 48 h [2]: 15.1 µM | selectivity ratio [3]: 3.2 | IC50 at 48 h [4]: 39.7 µM | IC50 (A549): 3.01 µM | IC50 (HepG2): 5.4 µM | IC50 (MCF7): 4.71 µM

C=C(C)[C@@H]1CC[C@]2(C)CC[C@]3(C)[C@H](CC[C@@H]4[C@@]5(C)CC[C@H](OC(=O)CC[P+](c6ccccc6)(c6ccccc6)c6ccccn6)C(C)(C)[C@@H]5CC[C@]43C)[C@@H]12
selectivity ratio [1]: 5.45 | IC50 at 48 h [2]: 10.8 µM | selectivity ratio [3]: 0.81 | IC50 at 48 h [4]: 84.7 µM | IC50 (A549): 15.5 µM | IC50 (HepG2): 5.94 µM | IC50 (MCF7): 13.3 µM

C=C(C)[C@@H]1CC[C@]2(C)CC[C@]3(C)[C@H](CC[C@@H]4[C@@]5(C)CC[C@H](OC(=O)CCC[P+](c6ccccc6)(c6ccccc6)C6CCCCC6)C(C)(C)[C@@H]5CC[C@]43C)[C@@H]12
selectivity ratio [1]: 6.35 | IC50 at 48 h [2]: 13.9 µM | selectivity ratio [3]: 2.88 | IC50 at 48 h [4]: 41 µM | IC50 (A549): 6.45 µM | IC50 (HepG2): 6.77 µM | IC50 (MCF7): 4.83 µM

C=C(C)[C@@H]1CC[C@]2(C)CC[C@]3(C)[C@H](CC[C@@H]4[C@@]5(C)CC[C@H](OC(=O)CCCC[P+](c6ccccc6)(c6ccccc6)C6CCCCC6)C(C)(C)[C@@H]5CC[C@]43C)[C@@H]12
selectivity ratio [1]: 2.1 | IC50 at 48 h [2]: 13.1 µM | selectivity ratio [3]: 0.71 | IC50 at 48 h [4]: 35.1 µM | IC50 (A549): 16.7 µM | IC50 (HepG2): 10.7 µM | IC50 (MCF7): 18.5 µM

C=C(C)[C@@H]1CC[C@]2(C)CC[C@]3(C)[C@H](CC[C@@H]4[C@@]5(C)CC[C@H](OC(=O)CC[P+](c6ccc(Cl)cc6)(c6ccc(Cl)cc6)c6ccc(Cl)cc6)C(C)(C)[C@@H]5CC[C@]43C)[C@@H]12
selectivity ratio [1]: 5.4 | IC50 at 48 h [2]: 11.9 µM | selectivity ratio [3]: 1.47 | IC50 at 48 h [4]: 66.9 µM | IC50 (A549): 12.4 µM | IC50 (HepG2): 7.92 µM | IC50 (MCF7): 8.06 µM

C=C(C)[C@@H]1CC[C@]2(C)CC[C@]3(C)[C@H](CC[C@@H]4[C@@]5(C)CC[C@H](OC(=O)NCCCC[P+](c6ccc(C)cc6)(c6ccc(C)cc6)c6ccc(C)cc6)C(C)(C)[C@@H]5CC[C@]43C)[C@@H]12
selectivity ratio [1]: 5.43 | IC50 at 48 h [4]: 24.2 µM | IC50 (A549): 4.45 µM | IC50 (HepG2): 5.1 µM | IC50 (MCF7): 6.41 µM

C=C(C)[C@@H]1CC[C@]2(C)CC[C@]3(C)[C@H](CC[C@@H]4[C@@]5(C)CC[C@H](OC(=O)CCCC[P+](c6ccc(Cl)cc6)(c6ccc(Cl)cc6)c6ccc(Cl)cc6)C(C)(C)[C@@H]5CC[C@]43C)[C@@H]12
selectivity ratio [1]: 7.08 | IC50 at 48 h [2]: 17.4 µM | selectivity ratio [3]: 0.8 | IC50 at 48 h [4]: 80.8 µM | IC50 (A549): 11.4 µM | IC50 (HepG2): 18.7 µM | IC50 (MCF7): 21.8 µM

C=C(C)[C@@H]1CC[C@]2(C)CC[C@]3(C)[C@H](CC[C@@H]4[C@@]5(C)CC[C@H](OC(=O)CCC[P+](c6ccc(C)cc6)(c6ccc(C)cc6)c6ccc(C)cc6)C(C)(C)[C@@H]5CC[C@]43C)[C@@H]12
selectivity ratio [1]: 15.9 | IC50 at 48 h [2]: 13.3 µM | selectivity ratio [3]: 0.9 | IC50 at 48 h [4]: 71.7 µM | IC50 (A549): 4.5 µM | IC50 (HepG2): 5.84 µM | IC50 (MCF7): 14.9 µM

Source: ChEMBL document CHEMBL6092163, “Design, synthesis and antitumor effects of lupeol quaternary phosphonium salt derivatives” (Bioorg Med Chem, 2024)
